According to paper PMC4629031, “Evaluation of the Inhibitory Effects of Bavachinin and Bavachin on Human Monoamine Oxidases A and B” (Evidence-based Complementary and Alternative Medicine : eCAM, 2015):
pKi: −log10 of the molar value.

Assays:
[1] = molecular target: T1, human monoamine oxidase A (hMAO-A) (Homo sapiens, UniProt P21397); test: MAO-Glo luminescent assay with recombinant enzyme; Michaelis-Menten/Lineweaver-Burk kinetics (IC50 […]); type: biochemical
T1 construct: gene MAOA
T1 sequence (P21397 1-527): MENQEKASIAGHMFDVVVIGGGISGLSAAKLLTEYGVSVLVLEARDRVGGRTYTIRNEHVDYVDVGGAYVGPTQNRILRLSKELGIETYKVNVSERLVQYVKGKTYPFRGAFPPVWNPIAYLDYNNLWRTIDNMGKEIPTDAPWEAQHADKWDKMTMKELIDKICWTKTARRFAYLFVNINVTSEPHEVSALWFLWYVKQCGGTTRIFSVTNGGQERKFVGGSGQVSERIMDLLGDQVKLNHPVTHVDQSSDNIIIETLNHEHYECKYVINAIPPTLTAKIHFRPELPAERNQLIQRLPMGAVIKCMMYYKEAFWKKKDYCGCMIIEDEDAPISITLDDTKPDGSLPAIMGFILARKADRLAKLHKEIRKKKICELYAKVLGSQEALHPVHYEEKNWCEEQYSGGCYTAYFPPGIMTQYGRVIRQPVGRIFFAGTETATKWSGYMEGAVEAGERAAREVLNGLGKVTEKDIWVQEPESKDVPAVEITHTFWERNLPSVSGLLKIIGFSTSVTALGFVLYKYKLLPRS

[2] = molecular target: T2, human monoamine oxidase B (hMAO-B) (Homo sapiens, UniProt P27338); test: as above; type: biochemical
T2 construct: gene MAOB
T2 sequence (P27338 2-520): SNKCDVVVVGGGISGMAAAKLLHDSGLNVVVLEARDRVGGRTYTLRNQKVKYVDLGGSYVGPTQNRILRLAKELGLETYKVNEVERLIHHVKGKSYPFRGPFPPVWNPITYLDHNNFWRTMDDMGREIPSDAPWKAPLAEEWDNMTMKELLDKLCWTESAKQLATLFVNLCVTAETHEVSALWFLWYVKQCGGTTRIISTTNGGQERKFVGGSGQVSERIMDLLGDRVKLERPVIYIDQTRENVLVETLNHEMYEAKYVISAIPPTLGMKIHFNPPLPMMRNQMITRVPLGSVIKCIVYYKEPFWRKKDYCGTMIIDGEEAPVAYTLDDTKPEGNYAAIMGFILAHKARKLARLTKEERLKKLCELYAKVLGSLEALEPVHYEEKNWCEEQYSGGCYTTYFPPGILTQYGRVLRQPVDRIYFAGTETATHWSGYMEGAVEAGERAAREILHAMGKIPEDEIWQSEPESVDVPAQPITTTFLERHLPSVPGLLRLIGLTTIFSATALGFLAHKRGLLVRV

Work on `COc1cc2c(cc1CC=C(C)C)C(=O)C[C@@H](c1ccc(O)cc1)O2` [BNN, 4′-hydroxy-7-methoxy-6-(3-methyl-2-butenyl) flavanone] yielded a pKi [1] of 4.02 and a pKi [2] of 5.04.
